Experimental data from patent publication US12485132B2, “GPX4 inhibitors and senolytic compounds and uses thereof” (Rubedo Life Sciences, Inc., priority 2023, dated 2025).

Columns and labels:
A549 cells = test: Lipid peroxidation assay by flow cytometry (BODIPY 581/591 C11); type: cell-based, human; details: 0.02, 0.2 and 2 μm, 18.5 hours
Protocol: Inhibition of the cellular activity of GPX4 can be estimated by changes in lipid peroxidation levels that can be detected by the oxidation of BODIPY 581/591 C11, a ratiometric fluorescent indicator reacting with free radicals produced during membrane peroxidation (Drummen et al., Free Radic Biol Med 2002 33 (4): 473-90; and Martinez et al., Methods Mol Biol 2020 2018:125-130). For a lipid peroxidation assay by flow cytometry, A549 cells were seeded at 333,000 cells per well in 12-well plates. On the following day, culture media was replaced with 1 mL media containing either DMSO or compound 32 (0.02, 0.2 and 2 μm), and cultures were incubated at 37° C. for 18.5 hours. Thirty minutes before the end of the incubation period, 2 μm BODIPY 581/591 C11 (D3861, Invitrogen) was added to cells. Following cell collection by trypsinization, cells were subjected to flow cytometry analysis (BD FACSAria), and gated for the live cell population, which was analyzed for fluorescence signal associated with the oxidized state of BODIPY 581/591 C11. The results are illustrated in FIG. 4.

senescent HEPG2 cells = test: Senescence assay: viability of senescent HEPG2 cells; type: cell-based; details: Homo sapiens, 24-72 hours incubation, viability by CellTiter-Glo or XTT, read-out: Absolute IC50 average HEPG2_SEN IC50
Procedure, shortened: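 A549 and HEPG2 cells made senescent by sublethal chemotherapy (bleomycin, gemcitabine, doxorubicin or 5-fluorouridine) plus recovery, verified by low EdU and high SA-β-Gal. Ten-point duplicate dosing for 24-72 h; viability by CellTiter-Glo or XTT versus untreated cells; absolute IC50 from four-parameter Hill fit.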

[1] = tested on: senescent normal human dermal fibroblasts; test: Rescue of compound-induced cell death by ferrostatin-1 in senescent fibroblasts; type: cell-based; details: compounds at 1.11 μM, ferrostatin-1 at 0.375 and 6 μM; 24 hours; CellTiter-Glo
Excerpt: Cell death induced by ferroptosis-inducing agents can be characterized by rescuing the cellular response with radical trapping agents that prevent the accumulation of phospholipid hydroperoxides (Stockwell et al., Cell Chem Biol 2020 27 (4): 365-375). As such, ferrostatin-1 was identified as a potent inhibitor of ferroptosis for which a free radical trapping mechanism had been reported (Skouta et al., J Am Chem Soc 2014 136 (12): 4551-6; Zika et al., ACS Cent Sci. 2017 3 (3): 232-243; and Miotto et al., Redox Biol. 2020; 101328). To determine whether compounds 18 and 32 induce ferroptosis in senescent cells, normal human dermal fibroblasts were induced to undergo senescence by treatment with a sublethal concentration of chemotherapy (bleomycin sulfate), followed by a rest period without chemotherapy similarly to previous reports (Aoshiba et al., 2003 3:436-43). Cells were maintained in DMEM media (high glucose, 4 mM L-glutamine, no sodium pyruvate) supplemented with 10% heat-inactivated fetal bovine serum in a humidified incubator at 37° C. with 5% carbon dioxide and 5% oxygen. Cellular senescence was qualified by reduced EdU (5-ethynyl-2′-deoxyuridine) incorporation and increased SA-β-Gal (senescence-associated beta-galactosidase) staining compared to proliferating untreated cells. Senescent fibroblasts were plated into 96-well plates at a density of 10,000 cells per well. The next day, ferrostatin-1 was diluted in cell medium to reach a final concentration of 0.375 and 6 μM and was added to cells. Approximately 30 minutes after the addition of ferrostatin-1, compounds 18 and 32 at 1.11 μM, or the peptidyl transfer inhibitor puromycin at 10 μM were added to cells. Cells were incubated with the compounds for 24 hours, at which point viability was quantified using the CellTiter-Glo assay (Promega). The viability for treated cells was determined relative to untreated control cells.

C#CC(F)(F)[C@]1(O)CC[C@H]2[C@@H]3CCC4=CC(=NNC(=O)NC5CC5)CCC4=C3[C@H](c3ccc(C4CC4)cc3)C[C@@]21C [Compound 32, N-cyclopropyl-2-((8S,11S,13S,14S,17S)-11-(4-cyclopropylphenyl)-17-(1,1-difluoroprop-2-yn-1-yl)-17-hydroxy-13-methyl-1,2,6,7,8,11,12,13,14,15,16,17-dodecahydro-3H-cyclopenta[a]phenanthren-3-ylidene)hydrazine-1-carboxamide]
cellular lipid peroxidation (oxidized BODIPY 581/591 C11 signal) (A549 cells): induced markers of cellular lipid peroxidation
IC50 (senescent HEPG2 cells): 0.1 to 10 nM
inhibition by ferrostatin-1 of compound-induced cell death [1]: potently inhibits cell death induced by compounds 18 and 32
